Experimental findings from patent US10654814B2, “Bicyclic hydroxamic acids useful as inhibitors of mammalian histone deacetylase activity” (KANCERA AB, priority 2015, dated 2020) are described below.

The structures appear in SMILES notation. Like-named read-outs stand apart in the source and are kept apart here. Some results are limits rather than exact numbers.

One assay concerns the target HDAC6 (Homo sapiens (Human), UniProt Q9UBN7). Nature of the assay: HDAC6 in vitro enzymatic assay (fluorescence). The class given is biochemical. The procedure, abridged: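 Fluorogenic HDAC substrate reactions contained assay buffer, BSA and compound, followed by developer. Fluorescence was read at ex 360/em 460 nm. Compounds were tested as 11-point 1:3 dilutions from a top of 200 μM for HDAC1, 2 and 3, and from 2 μM for HDAC6, in duplicate.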

Another assay concerns the target HDAC1 (Homo sapiens (Human), UniProt Q13547). Nature of the assay: HDAC1 in vitro enzymatic assay (fluorescence). The settings on record: Table 4 selectivity profiling. The class given is biochemical. The procedure: (§1) Biological Tests Method for Measurement of Enzymatic Activity of HDACs Materials & Methods
(§2) All Examples were tested in HDAC1,2,3,6 and 8 in vitro enzymatic assays. The assay principle is well known (Hauser et al. 2009, Bradner et al. 2010) and all necessary reagents like enzymes, substrates, developer and reference compounds are commercially available (see e.g. BPS Biosciences http://www.bpsbioscience.com/). Stock solutions (10 mM in DMSO) of compounds were serially diluted 1:3 in 11 concentrations with a top concentration of 200 μM for HDAC1,2,3 and 2 μM for HDAC6 and HDAC8. The enzymatic reactions were conducted in a mixture containing assay buffer, bovine serum albumin, HDAC substrate, and a test compound. After enzymatic reaction, developer was added and after an additional incubation time, fluorescence intensity was measured at an excitation wavelength of 360 nm and an emission wavelength of 460 nm. All experiments were performed in duplicate.

For another assay, the target named is HDAC8 (Homo sapiens (Human), UniProt Q9BY41). The assay is described as follows: HDAC8 in vitro enzymatic assay (fluorescence). The class given is biochemical. The settings on record: Table 4 selectivity profiling. As for the experimental part: as §1, §2
The subject of assay [1] is U266 (multiple myeloma) cells. Nature of the assay: CellTiter-Blue cell viability assay, U266. The class given is cell-based. The settings on record: Homo sapiens, U-266; 72 hours of treatment. The procedure: (§3) Method for Measurement of Cell Viability
(§4) The CellTiter-Blue® Cell Viability Assay (Promega) provides a homogeneous, fluorometric method for estimating the number of viable cells present in multi-well plates. The assay uses the indicator dye resazurin to measure the metabolic capacity of cells. Viable cells retain the ability to reduce resazurin into resorufin, which is highly fluorescent.
(§5) Stock solutions (10 mM in DMSO) of compounds were serially diluted 1:2 in 11 concentrations. 50 nL/well (10 mM compound stock in DMSO) was acoustically dispensed in 384-well assay plates with an acoustic dispenser (EDC Biosystems ATS-100AV). Final starting concentration in the assay was 20 μM (0.2% DMSO) for test compounds. The following cell-lines (and origin) have been primarily used: PaCa2 (pancreatic), U266 (multiple myeloma), AMO-1 (plasmacytoma), and MDA-MB-231 (breast adenocarcinoma). PBMCs (peripheral blood mononuclear cells) from healthy donors were used as control cells. Cells were seeded in assay plates (384-well black/clear, Greiner #781091) pre-dispensed with compounds, 25 μL/well, and cultured for 72 hours. After 72 hours, Celltiter Blue reagent (Promega # G8081) was diluted 1:10 with PBS and then added to wells (5 μL/well). The plates were incubated for 2 hours following addition of reagent. The plates were read in an EnVision fluorescence reader (PerkinElmer) with Ex544 nm/Em590 nm. Results were calculated as % cell viability compared to background (cells treated with 0.2% DMSO).
For orientation: Alamar Blue is a resazurin reagent that responds to reducing activity.

In the next assay the target is HDAC3 (Homo sapiens (Human), UniProt O15379). Nature of the assay: HDAC3 in vitro enzymatic assay (fluorescence). The class given is biochemical. The settings on record: Table 4 selectivity profiling. The procedure:
as §1, §2

The test system of assay [2] is PBMCs (peripheral blood mononuclear cells) from healthy donors. The assay is described as follows: CellTiter-Blue cell viability assay, healthy PBMC. The class given is cell-based. The settings on record: 72 hours of treatment. The procedure:
as §3, §4, §5

The next assay relates to PaCa2 (pancreatic) cells. The assay is described as follows: CellTiter-Blue cell viability assay, PaCa2. The class given is cell-based. The settings on record: PaCa-2; 72 hours of treatment. As for the experimental part: as §3, §4, §5
Assay [3] relates to AMO-1 (plasmacytoma) cells. Nature of the assay: CellTiter-Blue cell viability assay, AMO-1. The class given is cell-based. The settings on record: Homo sapiens, AMO1; 72 hours of treatment. The procedure:
as §3, §4, §5

Assay [4] deals with MDA-MB-231 (breast adenocarcinoma) cells. Nature of the assay: CellTiter-Blue cell viability assay, MDA-MB-231. In kind it is cell-based. The settings on record: Homo sapiens, 72 hours of treatment. As for the experimental part: as §3, §4, §5
The target in the next assay is HDAC2 (Homo sapiens (Human), UniProt Q92769). Nature of the assay: HDAC2 in vitro enzymatic assay (fluorescence). The class given is biochemical. The settings on record: Table 4 selectivity profiling. The procedure:
as §1, §2

[5] abbreviates: Table 3, read-out: IC50 (nM) for inhibition of HDAC6.
The mark [6] stands for this setting: Table 4 selectivity profiling, read-out: IC50 (nM) HDAC6.

Sequence of HDAC3 (O15379 whole entry): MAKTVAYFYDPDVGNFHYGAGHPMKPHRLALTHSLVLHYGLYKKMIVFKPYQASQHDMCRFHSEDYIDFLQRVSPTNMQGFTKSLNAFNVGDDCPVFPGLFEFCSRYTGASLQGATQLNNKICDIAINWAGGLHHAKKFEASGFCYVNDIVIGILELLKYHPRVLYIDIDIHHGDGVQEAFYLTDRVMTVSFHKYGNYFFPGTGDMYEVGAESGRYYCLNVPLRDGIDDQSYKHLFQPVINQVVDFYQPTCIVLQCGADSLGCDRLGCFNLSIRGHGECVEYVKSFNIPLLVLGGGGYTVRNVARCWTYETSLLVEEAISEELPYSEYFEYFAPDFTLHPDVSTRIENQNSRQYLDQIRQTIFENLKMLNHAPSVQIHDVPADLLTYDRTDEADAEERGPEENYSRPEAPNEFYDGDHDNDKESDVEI
Sequence of HDAC3 (Q9Y618 395-489 partner): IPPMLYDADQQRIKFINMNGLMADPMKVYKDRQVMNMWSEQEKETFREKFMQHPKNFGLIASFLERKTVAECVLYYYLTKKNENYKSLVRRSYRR
Sequence of HDAC2 (Q92769 whole entry): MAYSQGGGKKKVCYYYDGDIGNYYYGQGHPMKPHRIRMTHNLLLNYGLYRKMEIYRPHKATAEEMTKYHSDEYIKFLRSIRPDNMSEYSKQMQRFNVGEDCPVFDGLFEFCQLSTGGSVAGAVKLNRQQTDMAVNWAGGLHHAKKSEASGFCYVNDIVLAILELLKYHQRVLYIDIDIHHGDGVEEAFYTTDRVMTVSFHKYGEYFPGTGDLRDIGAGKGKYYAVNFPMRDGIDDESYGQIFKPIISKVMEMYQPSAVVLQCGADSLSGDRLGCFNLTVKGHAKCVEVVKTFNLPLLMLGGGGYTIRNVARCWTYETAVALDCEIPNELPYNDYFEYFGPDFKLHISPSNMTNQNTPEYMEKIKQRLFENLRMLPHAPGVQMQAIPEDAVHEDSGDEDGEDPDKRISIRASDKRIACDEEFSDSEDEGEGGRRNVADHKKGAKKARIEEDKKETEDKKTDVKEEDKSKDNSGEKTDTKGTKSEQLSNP
Sequence of HDAC1 (Q13547 whole entry): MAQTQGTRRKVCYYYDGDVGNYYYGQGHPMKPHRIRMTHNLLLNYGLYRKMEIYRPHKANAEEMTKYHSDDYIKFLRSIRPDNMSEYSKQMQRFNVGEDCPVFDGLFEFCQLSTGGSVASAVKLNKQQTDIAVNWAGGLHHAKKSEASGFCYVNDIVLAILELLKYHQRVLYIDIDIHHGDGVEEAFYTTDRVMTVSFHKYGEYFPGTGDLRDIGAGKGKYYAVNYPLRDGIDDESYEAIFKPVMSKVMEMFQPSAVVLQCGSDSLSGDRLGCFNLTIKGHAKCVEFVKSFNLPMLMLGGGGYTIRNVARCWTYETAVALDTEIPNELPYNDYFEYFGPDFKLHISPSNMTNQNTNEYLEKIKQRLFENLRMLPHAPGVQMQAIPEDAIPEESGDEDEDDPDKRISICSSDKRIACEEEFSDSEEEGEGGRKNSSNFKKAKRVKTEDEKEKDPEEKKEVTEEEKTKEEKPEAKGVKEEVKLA
Sequence of HDAC8 (Q9BY41 whole entry): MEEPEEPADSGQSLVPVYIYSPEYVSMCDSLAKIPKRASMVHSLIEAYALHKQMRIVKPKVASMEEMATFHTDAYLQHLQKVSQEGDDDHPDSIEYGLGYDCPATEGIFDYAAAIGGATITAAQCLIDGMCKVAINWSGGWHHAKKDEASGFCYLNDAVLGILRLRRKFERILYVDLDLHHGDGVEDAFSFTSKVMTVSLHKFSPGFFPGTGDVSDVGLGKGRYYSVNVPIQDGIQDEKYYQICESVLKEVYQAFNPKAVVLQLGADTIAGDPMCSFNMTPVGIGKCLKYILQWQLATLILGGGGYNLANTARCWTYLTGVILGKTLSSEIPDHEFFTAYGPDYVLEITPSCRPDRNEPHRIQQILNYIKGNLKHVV
Sequence of HDAC6 (Q9UBN7 whole entry): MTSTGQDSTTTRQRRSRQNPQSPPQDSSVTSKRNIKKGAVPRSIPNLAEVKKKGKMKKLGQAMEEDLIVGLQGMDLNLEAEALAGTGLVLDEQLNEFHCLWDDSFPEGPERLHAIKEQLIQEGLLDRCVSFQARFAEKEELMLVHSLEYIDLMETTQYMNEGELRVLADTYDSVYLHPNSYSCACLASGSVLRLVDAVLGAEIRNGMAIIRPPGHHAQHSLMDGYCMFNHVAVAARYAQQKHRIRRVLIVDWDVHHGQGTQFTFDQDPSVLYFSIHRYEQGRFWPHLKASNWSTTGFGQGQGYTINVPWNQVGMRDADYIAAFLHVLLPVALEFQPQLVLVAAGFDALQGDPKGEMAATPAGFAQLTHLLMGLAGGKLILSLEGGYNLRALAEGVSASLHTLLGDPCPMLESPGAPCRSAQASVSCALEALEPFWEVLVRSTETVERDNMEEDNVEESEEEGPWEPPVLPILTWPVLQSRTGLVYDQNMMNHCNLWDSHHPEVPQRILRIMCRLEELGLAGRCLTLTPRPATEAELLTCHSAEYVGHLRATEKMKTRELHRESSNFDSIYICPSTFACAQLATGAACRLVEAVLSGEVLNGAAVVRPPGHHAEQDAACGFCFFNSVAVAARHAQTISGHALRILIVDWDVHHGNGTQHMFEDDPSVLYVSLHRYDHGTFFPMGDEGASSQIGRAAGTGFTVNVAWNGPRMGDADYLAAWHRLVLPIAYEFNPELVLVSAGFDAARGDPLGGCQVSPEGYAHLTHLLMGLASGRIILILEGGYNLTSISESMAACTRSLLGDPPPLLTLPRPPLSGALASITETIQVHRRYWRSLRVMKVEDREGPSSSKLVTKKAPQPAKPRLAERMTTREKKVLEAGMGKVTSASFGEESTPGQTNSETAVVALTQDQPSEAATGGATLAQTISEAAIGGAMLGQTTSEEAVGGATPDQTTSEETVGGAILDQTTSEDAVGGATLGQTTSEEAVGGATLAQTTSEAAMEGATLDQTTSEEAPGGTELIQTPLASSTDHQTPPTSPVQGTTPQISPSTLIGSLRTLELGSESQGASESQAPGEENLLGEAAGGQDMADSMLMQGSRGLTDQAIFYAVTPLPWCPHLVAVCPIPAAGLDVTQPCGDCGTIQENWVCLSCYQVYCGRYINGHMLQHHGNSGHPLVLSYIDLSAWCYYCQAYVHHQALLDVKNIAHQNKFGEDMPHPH

On to `CC(C)c1ccc(-c2cc3cc(C(=O)NO)ccc3s2)cc1` [Example 89, N-Hydroxy-2-[4-(1-methylethyl)phenyl]-1-benzothiophene-5-carboxamide], for which the IC50 (commonly the midpoint of a concentration-inhibition curve) at HDAC6 (setting [5]) is 55 nM; on HDAC6 (setting [6]), 26 nM; on HDAC1, 100000 nM; against HDAC8 it was greater than 2000 nM; in assay [1], 0.43 µM; on HDAC3 it was 90000 nM. Besides, the IC50 is greater than 20 µM in assay [2]; 0.68 µM in the assay with PaCa2 (pancreatic) cells; 0.44 µM in [3]; 0.81 µM in assay [4]; 90000 nM at HDAC2.

For `CC(C)c1ccc(-c2nc3cc(C(=O)NO)ccc3s2)cc1` [Example 75, N-Hydroxy-2-[4-(1-methylethyl)phenyl]-1,3-benzothiazole-5-carboxamide], the IC50 on HDAC6 (setting [5]) was 13 nM; at HDAC6 (setting [6]) it was 3 nM; against HDAC1, 900 nM; on HDAC8, 28 nM; in assay [1], 0.49 µM; on HDAC3, 500 nM. Also, the IC50 in [2] was greater than 20 µM; in the assay with PaCa2 (pancreatic) cells, 1.3 µM; in assay [3], 0.41 µM; in assay [4], 0.4 µM; at HDAC2, 5500 nM.

Take `COc1ccc(F)cc1-c1ccc(-c2nc3cc(C(=O)NO)ccc3o2)c(F)c1` [Example 193, 2-(3,5′-difluoro-2′-methoxybiphenyl-4-yl)-N-hydroxy-1,3-benzoxazole-5-carboxamide]: the IC50 in assay [1] was 1.2 µM; in [2], greater than 20 µM; in the assay with PaCa2 (pancreatic) cells, 2.2 µM; in assay [3], 2.3 µM; in [4], 0.98 µM.

As to `COc1ccc(-c2ccc(-c3nc4cc(C(=O)NO)ccc4o3)cc2)cn1` [Example 27, N-hydroxy-2-[4-(6-methoxypyridin-3-yl)phenyl]-1,3-benzoxazole-5-carboxamide], the IC50 on HDAC6 (setting [6]) is 3 nM; at HDAC1, greater than 200000 nM; against HDAC8, greater than 2000 nM; in assay [1] it was 0.89 µM; at HDAC3, 820 nM; in assay [2] it was greater than 20 µM. Moreover, the IC50 was 0.81 µM with PaCa2 (pancreatic) cells, 0.62 µM in [3], 3.1 µM in [4] and greater than 200000 nM against HDAC2.

Turning to `CC(C)(C)c1ccc(-c2nc3cc(C(=O)NO)ccc3s2)cc1` [Example 77, 2-(4-tert-butylphenyl)-N-hydroxy-1,3-benzothiazole-5-carboxamide], the IC50 at HDAC6 (setting [6]) is 22 nM; on HDAC1 it was 1800 nM; against HDAC8, 410 nM; in [1], 0.48 µM; at HDAC3, 930 nM; in [2], greater than 20 µM. The IC50 in the assay with PaCa2 (pancreatic) cells came out at 1.4 µM; in assay [3], 0.34 µM; in assay [4] it was 1.8 µM; against HDAC2, 9400 nM.

For `CC(C)c1ccc(-c2cc3cc(C(=O)NO)ccc3o2)cc1` [Example 111, N-Hydroxy-2-[4-(1-methylethyl)phenyl]-1-benzofuran-5-carboxamide], the IC50 in assay [1] was 0.67 µM; in assay [2], greater than 20 µM; with PaCa2 (pancreatic) cells, 1.3 µM; in assay [3], 0.67 µM; in [4], 1.2 µM.

As for `CC(C)c1ccc(Nc2nc3cc(C(=O)NO)ccc3o2)cc1` [Example 43, N-hydroxy-2-{[4-(1-methylethyl)phenyl]amino}-1,3-benzoxazole-5-carboxamide], the IC50 on HDAC6 (setting [6]) was 51 nM; against HDAC1 it was 5100 nM; on HDAC8, 200 nM; in assay [1], 1.1 µM; against HDAC3, 3500 nM; in [2], greater than 20 µM. The IC50 is 1.7 µM in the assay with PaCa2 (pancreatic) cells, 0.68 µM in assay [3], 0.37 µM in [4] and greater than 200000 nM on HDAC2.

As to `CC(C)c1ccc(-c2cc3ccc(C(=O)NO)cc3[nH]2)cc1` [Example 59, N-Hydroxy-2-[4-(1-methylethyl)phenyl]-1H-indole-6-carboxamide], the half-inhibitory concentration (IC50) in [1] was 1.7 µM; in assay [2], greater than 20 µM; with PaCa2 (pancreatic) cells, 1.4 µM; in assay [3], 0.66 µM; in [4], 1.2 µM.

Take `O=C(NO)c1ccc2sc(-c3ccc(OC(F)(F)F)cc3)cc2c1` [Example 102, N-hydroxy-2-[4-(trifluoromethoxy)phenyl]-1-benzothiophene-5-carboxamide]: the IC50 at HDAC6 (setting [5]) is 70 nM; in assay [1] it was 0.64 µM; in assay [2], greater than 20 µM; in the assay on PaCa2 (pancreatic) cells, 2.48 µM; in assay [3], 0.47 µM; in assay [4], 0.41 µM.

With `O=C(NO)c1ccc2oc(-c3ccc(OC(F)(F)F)cc3)nc2c1` [Example 9, N-hydroxy-2-[4-(trifluoromethoxy)phenyl]-1,3-benzoxazole-5-carboxamide], the IC50 at HDAC6 (setting [6]) is 38 nM; at HDAC1, 6000 nM; on HDAC8, 800 nM; in [1], 0.91 µM; against HDAC3, 1700 nM; in [2] it was greater than 20 µM. Further, the IC50 with PaCa2 (pancreatic) cells came out at 1.9 µM; in assay [3], 0.9 µM; in assay [4], 1.4 µM; against HDAC2, 76000 nM.

As for `COc1ccncc1-c1ccc(-c2nc3cc(C(=O)NO)ccc3o2)cc1` [Example 26, N-hydroxy-2-[4-(4-methoxypyridin-3-yl)phenyl]-1,3-benzoxazole-5-carboxamide], the IC50 is 5 nM on HDAC6 (setting [5]); 1.1 µM in assay [1]; greater than 20 µM in assay [2]; 1.1 µM with PaCa2 (pancreatic) cells; 0.61 µM in assay [3]; 1.7 µM in assay [4].

For `CC(C)Oc1ccc(-c2cc3cc(C(=O)NO)ccc3s2)cc1Cl` [Example 107, 2-[3-chloro-4-(1-methylethoxy)phenyl]-N-hydroxy-1-benzothiophene-5-carboxamide], the IC50 was 0.42 µM in assay [1]; greater than 20 µM in [2]; 1.3 µM in the assay on PaCa2 (pancreatic) cells; 0.37 µM in assay [3]; 0.42 µM in assay [4].

Turning to `CC(C)c1ccc(-c2nc3ccc(C(=O)NO)cc3s2)cc1` [Example 61], the IC50 in assay [1] was 1.1 µM; in assay [2] it was greater than 20 µM; with PaCa2 (pancreatic) cells, 0.9 µM; in assay [3], 0.81 µM; in [4], 1.8 µM.

`O=C(NO)c1ccc2sc(-c3cccc(C(F)(F)F)c3)cc2c1` [Example 90, N-hydroxy-2-[3-(trifluoromethyl)phenyl]-1-benzothiophene-5-carboxamide]: the IC50 on HDAC6 (setting [5]) is 28 nM; in assay [1], 0.58 µM; in assay [2], greater than 20 µM; in the assay with PaCa2 (pancreatic) cells, 0.8 µM; in assay [3] it was 0.5 µM; in assay [4], 0.81 µM.

In the case of `CC(C)(C)c1ccc(-c2cc3cc(C(=O)NO)ccc3s2)cc1` [Example 103, 2-(4-tert-butylphenyl)-N-hydroxy-1-benzothiophene-5-carboxamide], the half-inhibitory concentration (IC50) is 0.55 µM in assay [1]; greater than 20 µM in [2]; 1.46 µM in the assay with PaCa2 (pancreatic) cells; 0.49 µM in assay [3]; 0.6 µM in assay [4].

`CC(C)c1ccc(-c2cc3ccc(C(=O)NO)cc3o2)cc1` [Example 112, N-Hydroxy-2-[4-(1-methylethyl)phenyl]-1-benzofuran-6-carboxamide]: the concentration for half-maximal inhibition (IC50) is 7 nM at HDAC6 (setting [5]); 0.58 µM in assay [1]; greater than 20 µM in assay [2]; 0.89 µM in the assay with PaCa2 (pancreatic) cells; 0.46 µM in [3]; 1.2 µM in assay [4].
